The source of these data is publication PMC9620869 (Cancer Research, 2022).

A value given as a limit tells only on which side of the number the result lay.

The subject of one series is hiPSC-CMs. Briefly: hiPSC-CM contractility. It counts as cell-based. The note with it: Homo sapiens, 96 h, read-out: hiPSC-CM contractility IC50.
For series [1] the following is noted: oral dose escalation, maximal dose 60 mg/kg, 30 days.
The next series concerns serum cardiac Troponin-I. The conditions noted are these: 30 mg/kg oral daily, end of treatment.
Another series is described as follows: in vivo. The note with it: male, C57Bl/6, mouse, plasma, po, 10 mg/kg.
For the next series, the system named is HMVEC-Cs. Briefly: Vasculogenesis assay. The conditions noted are these: Homo sapiens, 6 h.

For `Cc1ccc(C(=O)Nc2ccc(CN3CCN(C)CC3)c(C(F)(F)F)c2)cc1C#Cc1cnc2cccnn12` [Ponatinib], the IC50 (usually the concentration that gives 50% inhibition) in the series with hiPSC-CMs is more than 1500 nM. The molecule also gave a dose causing lethality in series [1] of 50 mg/kg. The “serum cardiac Troponin-I levels compared with vehicle alone” value with serum cardiac Troponin-I was “significantly elevated levels”. Also, in the series “in vivo”, the highest level (Cmax) was 200 ng/mL and the Tmax (commonly the time at which the peak concentration occurs) is 2 h. In the series on HMVEC-Cs (read-out: Vascular profile IC50), the IC50 was approximately 200 nM. In addition, the EC50 in the series on HMVEC-Cs (read-out: Vasculotoxicity (EC50, μmol/L) mean ± SEM) was 0.2 ± 0.04 µmol/L.
